Experimental data taken from patent publication US20110268818A1, “NGAL-BINDING SIDEROPHORES AND USE THEREOF TO TREAT IRON DEFICIENCY AND IRON OVERLOAD” (priority 2008, published 2011).

Key:
NGAL = biological target: T1, NGAL (Homo sapiens, UniProt P80188); test: NGAL:siderophore:iron binding assay (retention on 10 kDa filter); conditions: for NGAL-siderophore-Fe binding activity (in words): iron retention by NGAL on filter
T1 construct: made in house; host or cells: E. coli BL-21
Description: NGAL:Siderophore:Iron Binding Assays. […] After 60 minutes, the mixture was washed 3 times (YM-10) or alternatively gel filtered (PD-10, GE Biosciences). Ent loaded NGAL served as a positive control. Ferric citrate (1 mM) or Ent:iron (500 μM) served as competitors of ^55Fe binding.
After 60 minutes at room temperature, the mixture was then washed 3 times on a 10-kDa membrane (Amicon YM-10; Millipore Corp.). Ngal loaded with iron-free enterochelin (rather than apo-Ngal) served as a positive control for iron capture. Ferric citrate (1 mM) or iron-loaded enterochelin (siderophore:Fe, […]) was used as a competitor of 55Fe binding.

[1] = Siderophore:iron binding assay (paper chromatography); conditions: for Fe: Chromatography: 55Fe mobilised by compound on paper chromatogram developed in water, Yes/No
Text: Siderophore:Iron Binding Assay. To test whether candidates bound iron directly, candidates (1 nmole) were mixed with ^55Fe (1 pmole), and then separated bound from free ^55Fe using paper chromatography developed in water.
Paper chromatography: The Fe-Siderophore Binding Assay: The concept underlying the Ngal-siderophore-Fe binding assay is that the urinary molecule provides an iron binding siderophore, and that the Ngal protein provides the carrier which retains the siderophore:Fe on the 10 KDa filter. […] To directly test this idea, we will mix 55Fe with HMDB compounds and then separate bound from free 55Fe by using paper chromatography. […] The assay also provides an independent means to follow the purification of the urinary siderophore. Using this assay, we can measure the specific activity of the fractions to identify the peak activity, as well as to compare the urinary fraction with enterochelin to establish relative units of activity.

[2] = apoNGAL 10 μM, 55Fe, compound 10 μM, pH 7.4, washed on 10 kDa filter

T1 sequence (P80188 21-198): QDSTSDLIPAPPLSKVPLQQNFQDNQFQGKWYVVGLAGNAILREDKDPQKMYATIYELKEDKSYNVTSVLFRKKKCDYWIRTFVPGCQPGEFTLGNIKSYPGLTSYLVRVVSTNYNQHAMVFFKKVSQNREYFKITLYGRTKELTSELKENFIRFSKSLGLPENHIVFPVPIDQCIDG

| Compound | NGAL: Chelator: Fe % Retention (NGAL; [2]) [%] | NGAL-siderophore-Fe binding activity (in words) (NGAL) | iron chelating activity by paper chromatography (in words) [1] | Fe: Chromatography [1] | NGAL: Chelator: Fe % Retention (NGAL; pH 7.4) [%] |
| --- | --- | --- | --- | --- | --- |
| C=CC1=C(C)c2cc3[nH]c(cc4nc(cc5[nH]c(cc1n2)c(C)c5CCC(=O)O)C(CCC(=O)O)=C4C)c(C)c3C=C [Protoporphyrin IX] | 3 |  |  |  |  |
| O=C(/C=C/c1ccc(O)c(O)c1)O[C@H](Cc1ccc(O)c(O)c1)C(=O)O [Rosmarinic acid] | 50 | active | active | Yes |  |
| NC(=O)NC1NC(=O)NC1=O (stereo not drawn) [Allantoin] | 7 |  |  | No |  |
| O=c1c(O)c(-c2cc(O)c(O)c(O)c2)oc2cc(O)cc(O)c12 [Myricetin] | 28 | active |  | No |  |
| O=C(O)c1ccccc1O [Salicylic acid] | 15 |  |  | No |  |
| β-Nicotinamide adenine |  |  | active |  |  |
| NCCc1cc(O)c(O)cc1O [6-Hydroxydopamine] | 4 |  |  | No |  |
| O=C(O)CCC(=O)O [Succinic acid] |  |  |  |  | 11 |
| O=C(O)c1cccc(O)c1O [2,3- Dihydroxybenzoic acid] | 35 | active | active | Yes |  |
| Maleic acid | 4 |  |  | No |  |
| NCCc1cc(O)c(O)c(O)c1 [5-Hydroxydopamine] | 10 |  |  | No |  |
| C=CC1=C(C)/C(=C/c2[nH]c(Cc3[nH]c(/C=C4\NC(=O)C(C)=C4C=C)c(C)c3CCC(=O)O)c(CCC(=O)O)c2C)NC1=O [Bilirubin] | 3 |  |  | No |  |
| Nc1c(O)cccc1C(=O)O [3- Hydroxyanthranilic acid] | 10 |  |  | No |  |
| O=c1oc2c(O)c(O)cc3c(=O)oc4c(O)c(O)cc1c4c23 [Ellagic acid] | 24 | active | active | Yes |  |
| O=C(O)c1cccnc1C(=O)O [2,3-Pyridine-dicarboxylic acid] | 6 |  |  | No |  |
| O=S1(=O)Oc2ccccc2O1 [Catechol cyclic sulfonate] | 6 |  |  | No |  |
| O=C(O)c1ccc(O)c(O)c1 [3,4- Dihydroxybenzoic Acid] | 5 |  | active | Yes |  |
| N[C@@H](Cc1ccccc1)C(=O)O [L-Phenylalanine] | 8 |  |  | No |  |
| Cc1cc2nc3c(=O)[nH]c(=O)nc-3n(C[C@H](O)[C@H](O)[C@H](O)COP(=O)(O)OP(=O)(O)OC[C@H]3O[C@@H](n4cnc5c(N)ncnc54)[C@H](O)[C@@H]3O)c2cc1C [FAD] | 6 |  |  |  |  |
| O=C(O)/C=C(/CC(=O)O)C(=O)O [Cis-Aconitic acid] | 11 |  |  | No |  |
| N[C@@H](Cc1ccc(O)c(O)c1)C(=O)O [Dihydroxyphenyl alanine (L-DOPA)] | 10 |  | active | Yes |  |
| O=C(O)Cc1c[nH]c2ccc(O)cc12 [5-Hydroxy-indoleacetic acid] | 7 |  |  |  |  |
| O=C(/C=C/c1ccc(O)c(O)c1)O[C@@H]1C[C@](O)(C(=O)O)C[C@@H](O)[C@H]1O [Chlorogenic acid] | 6 |  |  |  |  |
| O=C(O)CC(C(=O)O)C(O)C(=O)O (racemic) [Isocitric acid] |  |  |  | Yes |  |
| O=c1cc[nH]c(=O)[nH]1 [Uracil] | 7 |  |  |  |  |
